Data on three compounds can be found in patent publication US12139520B2 (priority 2020, dated 2024).

A short description of data set [1]: Physical stability of peptide analogues (Thioflavin T fibrillation). It counts as physicochemical. The note with it: maximum ThT signal normalized between hAMY maximum and buffer background; 40° C., shaking, four days; pH 7 per table title. In outline:
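Peptides in 50 mM sodium acetate pH 4 or 50 mM sodium phosphate pH 7 were preincubated 1 h, mixed with 4 μM ThT, held at 40° C with 700 rpm shaking before each read. Fluorescence (ex 450/em 480 nm) every 10 min for four days; LOESS-smoothed maximum signal normalized in percent between hAMY and buffer.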

A further data set addresses hAM1 receptor (Homo sapiens, UniProt O60895+Q16602). As to the kind of experiment: cAMP assay for in vitro receptor activation, hAM1-R. The settings on record: cAMP assay, hAM1 receptor; read-out: hAM1R EC50. It counts as cell-based. In outline: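 cAMP accumulation was measured in a monoclonal cell line stably overexpressing the hAM1 receptor. Frozen aliquots were thawed and plated at 8000 cells/well in DPBS containing 0.05% casein and 0.5 mM IBMX.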
(In general: cAMP levels reflect the balance of adenylyl cyclase and phosphodiesterase activity.)

Bridge positions count the residues as written; N and C are the ends. Square brackets hold non-standard residues; d marks the D form. Peptide text beside a SMILES is read from it. Hyp = O=C(O)[C@@H]1C[C@@H](O)CN1; Cit = NC(=O)NCCC[C@H](N)C(=O)O

hAM1 receptor, sequence (Q16602 23-461): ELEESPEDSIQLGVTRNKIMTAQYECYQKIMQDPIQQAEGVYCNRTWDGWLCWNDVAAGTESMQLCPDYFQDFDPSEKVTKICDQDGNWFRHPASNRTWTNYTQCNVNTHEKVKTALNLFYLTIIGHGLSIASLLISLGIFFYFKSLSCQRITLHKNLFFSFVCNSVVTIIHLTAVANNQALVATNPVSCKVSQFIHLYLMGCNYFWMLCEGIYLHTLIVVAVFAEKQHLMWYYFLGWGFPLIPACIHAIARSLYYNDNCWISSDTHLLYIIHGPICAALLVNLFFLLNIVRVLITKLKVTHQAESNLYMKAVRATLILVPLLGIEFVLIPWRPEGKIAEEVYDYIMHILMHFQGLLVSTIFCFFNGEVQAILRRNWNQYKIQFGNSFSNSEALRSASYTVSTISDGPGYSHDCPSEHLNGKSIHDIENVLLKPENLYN
hAM1 receptor, sequence (O60895 43-175 partner): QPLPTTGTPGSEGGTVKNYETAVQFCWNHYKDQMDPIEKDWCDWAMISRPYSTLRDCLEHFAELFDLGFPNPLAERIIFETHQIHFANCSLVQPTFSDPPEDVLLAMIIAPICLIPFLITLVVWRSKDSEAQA

`CC[C@H](C)[C@H](NC(=O)[C@H](CCC(N)=O)NC(=O)[C@H](Cc1c[nH]cn1)NC(=O)[C@H](C)NC(=O)[C@H](CC(C)C)NC(=O)[C@H](Cc1c[nH]c2ccccc12)NC(=O)[C@H](CCC(N)=O)NC(=O)[C@@H](NC(=O)[C@@H](NC(=O)[C@@H]1CSSC[C@H](NC(=O)[C@@H](N)CCCCN)C(=O)N[C@@H](CC(N)=O)C(=O)N[C@@H]([C@@H](C)O)C(=O)N[C@@H](C)C(=O)N[C@@H]([C@@H](C)O)C(=O)N1)[C@@H](C)O)C(C)C)C(=O)N[C@@H](Cc1ccc(O)cc1)C(=O)N[C@@H](CCC(N)=O)C(=O)N[C@@H](C)C(=O)N[C@H](C(=O)N[C@@H](CC(=O)O)C(=O)N[C@@H](CCCCN)C(=O)N[C@@H](CC(=O)O)C(=O)N[C@@H](CCCCN)C(=O)N[C@@H](CC(=O)O)C(=O)N[C@@H](CC(N)=O)C(=O)N[C@H](C(=O)N[C@@H](C)C(=O)N1CCC[C@H]1C(=O)N1CCC[C@H]1C(=O)N[C@H](C(=O)N[C@@H](CC(N)=O)C(=O)N[C@H](C(=O)NCC(=O)N[C@@H](CO)C(=O)N[C@@H](CC(N)=O)C(=O)NCC(=O)N1C[C@H](O)C[C@H]1C(N)=O)C(C)C)[C@@H](C)O)C(C)C)[C@@H](C)O` [compound 338] (H-KCNTATCTVQWLAHQIYQATDKDKDNVAPPTNVGSNG[Hyp]-NH2; disulfide 2-7; N-terminus assumed): the “Max ThT signal (%)” value in data set [1] turned out to be 2.950%. In addition, the 50% effective concentration (EC50) at hAM1 receptor is > 5 µM.

On to `CC[C@H](C)[C@H](NC(=O)[C@H](CCCCN)NC(=O)[C@@H](NC(=O)[C@H](CCCNC(=N)N)NC(=O)[C@@H]1CCCN1C(=O)[C@H](C)NC(=O)[C@@H](NC(=O)[C@H](CC(N)=O)NC(=O)[C@H](CC(=O)O)NC(=O)[C@H](CCCCN)NC(=O)[C@H](CC(=O)O)NC(=O)[C@H](CCCCN)NC(=O)[C@H](CC(=O)O)NC(=O)[C@@H](NC(=O)[C@H](Cc1ccccc1)NC(=O)[C@H](CCC(N)=O)NC(=O)[C@H](Cc1ccc(O)cc1)NC(=O)[C@@H](NC(=O)[C@H](CCC(N)=O)NC(=O)[C@H](Cc1c[nH]cn1)NC(=O)[C@H](C)NC(=O)[C@H](CC(C)C)NC(=O)[C@H](CCCNC(N)=O)NC(=O)[C@H](CCC(N)=O)NC(=O)[C@@H](NC(=O)[C@@H](NC(=O)[C@@H]1CSSC[C@H](NC(=O)CN)C(=O)N[C@@H](CCCNC(=N)N)C(=O)N[C@@H]([C@@H](C)O)C(=O)NCC(=O)N[C@@H]([C@@H](C)O)C(=O)N1)[C@@H](C)O)C(C)C)[C@@H](C)CC)[C@@H](C)O)C(C)C)[C@@H](C)O)C(=O)NCC(=O)N1CCC[C@H]1C(=O)N[C@@H](CC(N)=O)C(=O)NCC(=O)N1C[C@H](O)C[C@H]1C(N)=O` [compound 277] (H-GCRTGTCTVQ[Cit]LAHQIYQFTDKDKDNVAPRTKIGPNG[Hyp]-NH2; disulfide 2-7; N-terminus assumed), for which the “Max ThT signal (%)” value in data set [1] is reported as 21.600%. Also, the EC50 on hAM1 receptor is > 5 µM.

Turning to `CC[C@H](C)[C@H](NC(=O)[C@H](CCC(N)=O)NC(=O)[C@H](Cc1c[nH]cn1)NC(=O)[C@H](C)NC(=O)[C@H](CC(C)C)NC(=O)[C@H](CCCNC(=N)N)NC(=O)[C@H](CCC(N)=O)NC(=O)[C@@H](NC(=O)[C@@H](NC(=O)[C@@H]1CSSC[C@H](NC(=O)CN)C(=O)N[C@@H](CCCNC(=N)N)C(=O)N[C@@H]([C@@H](C)O)C(=O)NCC(=O)N[C@@H]([C@@H](C)O)C(=O)N1)[C@@H](C)O)C(C)C)C(=O)N[C@@H](Cc1ccc(O)cc1)C(=O)N[C@@H](CCC(N)=O)C(=O)N[C@@H](Cc1ccccc1)C(=O)N[C@H](C(=O)N[C@@H](CC(=O)O)C(=O)N[C@@H](CCCCN)C(=O)N[C@@H](Cc1ccccc1)C(=O)N[C@@H](CCCCN)C(=O)N[C@@H](CC(=O)O)C(=O)N[C@@H](CC(N)=O)C(=O)N[C@H](C(=O)N[C@@H](C)C(=O)N1CCC[C@H]1C(=O)N[C@@H](CCCNC(=N)N)C(=O)N[C@@H](CO)C(=O)N[C@@H](CCCCN)C(=O)N[C@H](C(=O)N[C@@H](CO)C(=O)N1CCC[C@H]1C(=O)N[C@@H](CCC(N)=O)C(=O)N[C@H](C(=O)N[C@@H](Cc1ccc(O)cc1)C(N)=O)[C@@H](C)O)[C@@H](C)CC)C(C)C)[C@@H](C)O` [compound 230] (H-GCRTGTCTVQRLAHQIYQFTDKFKDNVAPRSKISPQTY-NH2; disulfide 2-7; N-terminus assumed), in data set [1], the “Max ThT signal (%)” value was 0.600%. Besides, the EC50 on hAM1 receptor is > 5 µM.

What is called EC50 is the concentration that produces a half-maximal response.
